From the NIST ThermoML archive (doi:10.1016/j.jct.2013.10.025)
Numbers after ± are expanded uncertainties.

Settings: 298.15 K, 101.33 kPa, Liquid; for viscosity: Capillary tube (Ostwald / Ubbelohde) method; for speed of sound: Sing-around technique in a fixed-path interferometer; for mass density: Vibrating tube method

viscosity | speed of sound | mass density | SMILES
10.61 ± 0.37 mPa·s | 1379.3 ± 1.6 m/s | 826.407 ± 0.24 kg/m3 | CCCCCCCCCCO [decan-1-ol]
4.436 ± 0.36 mPa·s | 1303.5 ± 1.5 m/s | 815.295 ± 0.24 kg/m3 | CCCCCCO [hexan-1-ol]
7.446 ± 0.36 mPa·s | 1347.9 ± 1.5 m/s | 821.837 ± 0.24 kg/m3 | CCCCCCCCO [octan-1-ol]
0.474 mPa·s | 1280.1 ± 1.5 m/s | 882.15 ± 0.23 kg/m3 | C1CCOC1 [tetrahydrofuran]
